The structures appear in SMILES notation.

Assay [1] has as its system MKN-45 cells. As to the kind of experiment: Antitumor test, MKN-45 transplanted nude mouse. Conditions: MKN-45, dose 2 mg/kg, orally, 14 consecutive days. The assay is classed as in vivo, nude mouse (BALB/c nu/nu). How it is done:
(§1) Cancer cells were cultured in a culture medium containing 10% bovine fetal serum in an incubator at 37° C., 5% CO2. MKN-45 cells were treated with trypsin/EDTA and isolated. MKN-45 and MV-4-11 cells were washed with HBSS (HANK's Balanced Saline Solution). When MKN-45 cells were transplanted, they were adjusted with HBSS to a cell density of 1.2×10^8 cells/mL, and transplanted by subcutaneous injection of 0.05 mL of a mixed suspension (3×10^6 cells) of the cell suspension and the same amount of Matrigel into the abdomen of 6 or 7-week-old female nude mouse (BALB/c nu/nu, CLEA Japan, Inc.). When MV-4-11 cells were transplanted, they were adjusted with HESS to a cell density of 1.2×10^8 cells/mL, and transplanted by subcutaneous injection of 0.05 mL of a mixed suspension (3×10^6 cells) of the cell suspension and the same amount of Matrigel into the abdomen of 7-week-old female nude mouse (BALB/c nu/nu, CLEA Japan, Inc.). When the average tumor volume reached 100-250 mm^3, the mice were grouped, and various doses of test substance were orally administered for 14 consecutive days starting from the next day. The length of the major axis and the length of the minor axis of the tumor were measured over time and the tumor volume was calculated by tumor volume=major axis length×minor axis length×minor axis length×0.5. The ratio of an increase in the average tumor volume of the control group to an increase in the average tumor volume of the drug administration group was taken as the tumor growth rate (%) of the drug administration group. Table 5 showned MKN-45 tumor growth rate (%) and table 6 showned MV-4-11 tumor growth rate (%).

Assay [2] has as its system MV-4-11 cells. As to the kind of experiment: Antitumor test, MV-4-11 transplanted nude mouse. The assay is classed as in vivo, nude mouse (BALB/c nu/nu). The note with it: MV-4-11, dose 2 mg/kg, orally, 14 consecutive days. How it is done:
as §1

With `Cc1ccc(C(=O)Nc2ccc(Oc3ccc4nc(NC(=O)C5CC5)cn4c3)c(F)c2)c(=O)n1-c1ccc(F)cc1.Cl` [Example 32, N-[4-({2-[(cyclopropylcarbonyl)amino]imidazo[1,2-a]pyridin-6-yl}oxy)-3-fluorophenyl]-1-(4-fluorophenyl)-6-methyl-2-oxo-1,2-dihydropyridine-3-carboxamide hydrochloride], the “tumor growth rate (%)” value is listed as 14% in assay [1] and <0% in assay [2].

These data come from patent publication US8445509B2, “Fused heterocyclic derivatives and use thereof” (Takeda Pharmaceutical Company Limited, priority 2008, dated 2013).
